Laboratory results: patent US12624034B2, “Non-covalent modifiers of AKT1 and uses thereof” (Terremoto Biosciences, Inc., priority 2023, dated 2026)
Read-outs that look alike come from different tables or passages of the source.

Assays:
AKT1 E17K = target: T1, AKT1 E17K (Homo sapiens, UniProt P31749, E17K); test: Live cell AKT1 E17K target engagement by NanoBRET competitive probe displacement in HEK293 cells; assay type: binding; conditions: 2 h at 37° C.
T1 construct: expressed in transfected cells; host or cells: HEK293
T1 sequence (P31749 whole entry E17K): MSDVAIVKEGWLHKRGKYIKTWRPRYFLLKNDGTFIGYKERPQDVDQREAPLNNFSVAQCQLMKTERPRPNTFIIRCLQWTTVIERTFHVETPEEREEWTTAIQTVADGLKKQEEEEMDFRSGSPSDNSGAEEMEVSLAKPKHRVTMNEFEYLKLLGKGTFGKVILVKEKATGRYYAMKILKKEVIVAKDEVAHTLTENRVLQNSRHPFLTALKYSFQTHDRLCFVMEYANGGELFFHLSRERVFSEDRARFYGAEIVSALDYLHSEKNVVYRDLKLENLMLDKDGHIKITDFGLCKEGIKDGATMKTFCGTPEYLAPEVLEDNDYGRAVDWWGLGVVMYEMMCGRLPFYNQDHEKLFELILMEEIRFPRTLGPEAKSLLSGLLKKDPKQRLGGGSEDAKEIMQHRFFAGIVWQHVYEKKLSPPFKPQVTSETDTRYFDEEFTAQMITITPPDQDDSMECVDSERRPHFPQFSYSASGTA
Method: Determining live cell AKT1 E17K, AKT1 WT, and AKT2 target engagement by NanoBRET competitive probe displacement. Live cell target engagement assays were performed as described (Vasta, J. D. et al. Cell Chem Biol 2018, 25(11), 206-214). Briefly, HEK293 cells were transfected with plasmids encoding kinase-NanoLuciferase fusion proteins overnight. Cells were then treated with serial dilutions of compound and an ˜EC50 concentration of fluorescently-tagged ATP-competitive tracer (Promega). After incubation for 2 h at 37° C., luciferase substrate and extracellular luciferase inhibitor were added to all wells, and luminescent intensity at 460 nm and 600 nm were measured on a multimode plate-reader. The ratio of E600/E460 was calculated to give the tracer engagement signal (BRET). IC50 values were calculated by fitting BRET values to a log(inhibitor) vs. response Hill equation.

AKT1 WT = target: T2, AKT1 WT (Homo sapiens, UniProt P31749); test: Live cell AKT1 WT target engagement by NanoBRET competitive probe displacement in HEK293 cells; assay type: binding; conditions: 2 h at 37° C., read-out: AKT1 WT IC50
T2 construct: expressed in transfected cells; host or cells: HEK293
T2 sequence (P31749 whole entry): as the sequence (P31749 whole entry E17K) above, with K17E counted along it

AKT2 = target: T3, AKT2 (Homo sapiens, UniProt P31751); test: Live cell AKT2 target engagement by NanoBRET competitive probe displacement in HEK293 cells; assay type: binding; conditions: 2 h at 37° C., read-out: AKT2 IC50
T3 construct: expressed in transfected cells; host or cells: HEK293
T3 sequence (P31751 whole entry): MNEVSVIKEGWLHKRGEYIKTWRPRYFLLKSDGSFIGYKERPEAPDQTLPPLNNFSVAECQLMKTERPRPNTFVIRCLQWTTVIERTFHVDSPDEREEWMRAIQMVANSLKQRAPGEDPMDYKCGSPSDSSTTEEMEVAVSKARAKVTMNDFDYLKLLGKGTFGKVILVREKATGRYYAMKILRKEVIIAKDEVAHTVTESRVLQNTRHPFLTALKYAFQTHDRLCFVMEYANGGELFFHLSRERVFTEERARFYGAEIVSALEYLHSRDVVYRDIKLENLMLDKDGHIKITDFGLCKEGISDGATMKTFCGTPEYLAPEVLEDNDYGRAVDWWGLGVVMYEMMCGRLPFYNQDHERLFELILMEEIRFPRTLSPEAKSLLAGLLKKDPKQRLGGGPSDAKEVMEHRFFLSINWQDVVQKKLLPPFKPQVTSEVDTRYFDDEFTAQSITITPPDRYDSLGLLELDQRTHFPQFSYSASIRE

[1] = system: LAPC4 prostate cancer cells, which express the AKT1 E17K allele; test: Antiproliferative effects in LAPC4 cells (CellTiter Glo, 72 h); assay type: cell-based; conditions: Homo sapiens, LAPC4, 72 h, read-out: LAPC4 proliferation IC50
Method: Antiproliferative Effects in LAPC4 Cells.
LAPC4 prostate cancer cells (Klein, K. A. et al. Nat Med 1997, 3, 402-408), which express the AKT1 E17K allele, were grown in IMDM media (Hyclone) supplemented with 12% FBS+1% P/S. To assess compound effects on growth, 1,000 cells/well were seeded in 384 well assay plates, incubated with compound dilutions dissolved in DMSO. After 72 h, intracellular ATP content was assessed with CellTiter Glo reagent (Promega) according to the manufacturer's instructions. IC50 values were calculated by fitting luminescence values to a log(inhibitor) vs. response Hill equation.

[2] = NanoBRET live cell target engagement, HEK293 cells
[3] = NanoBRET competitive probe displacement, live HEK293 cells

SMILES	IC50 (AKT1 E17K; [2]) [nM]	IC50 (AKT1 WT; [2]) [nM]	IC50 (AKT2; [2]) [nM]	IC50 [1] [nM]	IC50 (AKT1 E17K; [3]) [nM]	IC50 (AKT1 WT; [3]) [nM]	IC50 (AKT2; [3]) [nM]
CN1C(=O)CCC1CC(=O)N[C@H]1CCc2cc(-n3c(-c4cccnc4N)nc4ccc(-n5cccn5)nc43)ccc21 (mixture of isomers) [Compound 11, N—{(S)-5-[2-(2-amino-3-pyridyl)-5-(1-pyrazolyl)-3H-1,3,4-triazainden-3-yl]-1-indanyl}(1-methyl-5-oxo-2-pyrrolidinyl)acetamide]	> 1000	> 1000	> 10000				
COC1(C(F)F)CC(C(=O)N[C@H]2CCc3cc(-n4c(-c5cccnc5N)nc5ccc(-n6cccn6)nc54)ccc32)C1 (single isomer, unassigned) [Compound 10]	> 1000	390	> 10000	> 10000			
Nc1ncccc1-c1nc2ccc(-n3cccn3)nc2n1-c1ccc2c(c1)CC(F)[C@@H]2NC1CCN(C(=O)C2CC2)CC1 (single isomer, unassigned) [Compound 385, 3-{3-[(1R,2*)-1-[(1-cyclopropanecarbonylpiperidin-4-yl)amino]-2-fluoro-2,3-dihydro-1H-inden-5-yl]-5-(pyrazol-1-yl)imidazo[4,5-b]pyridin-2-yl}pyridin-2-amine]	> 856	34.3	1790	> 7500			
Nc1ncccc1-c1nc2ccc(-n3cccn3)nc2n1-c1ccc2c(c1)CC(F)[C@@H]2NC1CCN(C(=O)C2CC2)CC1 (single isomer, unassigned) [Compound 386]	> 487	17.6	1310	> 7160			
Nc1ncccc1-c1nc2ccc(-n3cccn3)nc2n1-c1ccc2c(c1)CC[C@@H]2NC1CCc2cnccc21 (single isomer, unassigned) [Compound 474]				2730	196	14.9	423
Nc1ncccc1-c1nc2ccc(-n3cccn3)nc2n1-c1ccc2c(c1)CC(F)[C@@H]2NC1CCc2cnccc21 (single isomer, unassigned) [Compound 482]				827	140	5.39	194
CC(=O)N[C@H]1CCc2cc(-n3c(-c4cccnc4N)nc4ccc(-n5cccn5)nc43)ccc21 [Compound 1, (S)—N-(5-(2-(2-aminopyridin-3-yl)-5-(1H-pyrazol-1-yl)-3H-imidazo[4,5-b]pyridin-3-yl)-2,3-dihydro-1H-inden-1-yl)acetamide]	> 1000	> 737	4310				
COc1cc(C(=O)N[C@H]2CCc3cc(-n4c(-c5cccnc5N)nc5ccc(-n6cccn6)nc54)ccc32)cc(F)c1F [Compound 3, (S)—N-(5-(2-(2-aminopyridin-3-yl)-5-(1H-pyrazol-1-yl)-3H-imidazo[4,5-b]pyridin-3-yl)-2,3-dihydro-1H-inden-1-yl)-3,4-difluoro-5-methoxybenzamide]	120	7.21	132	1710			
Cc1cc(C(=O)N[C@H]2CCc3cc(-n4c(-c5cccnc5N)nc5ccc(-n6cccn6)nc54)ccc32)n[nH]1 [Compound 4, (S)—N-(5-(2-(2-aminopyridin-3-yl)-5-(1H-pyrazol-1-yl)-3H-imidazo[4,5-b]pyridin-3-yl)-2,3-dihydro-1H-inden-1-yl)-5-methyl-11H-pyrazole-3-carboxamide]	172	19.7	295	1770			
Nc1ncccc1-c1nc2ccc(-n3cccn3)nc2n1-c1ccc2c(c1)CC[C@@H]2NC(=O)COc1ccon1 [Compound 5, (S)—N-(5-(2-(2-aminopyridin-3-yl)-5-(1H-pyrazol-1-yl)-3H-imidazo[4,5-b]pyridin-3-yl)-2,3-dihydro-1H-inden-1-yl)-2-(isoxazol-3-yloxy)acetamide]	> 1000	129	1410	9300			
Cn1ccc2c(C(=O)N[C@H]3CCc4cc(-n5c(-c6cccnc6N)nc6ccc(-n7cccn7)nc65)ccc43)[nH]cc2c1=O [Compound 6, (S)—N-(5-(2-(2-aminopyridin-3-yl)-5-(1H-pyrazol-1-yl)-3H-imidazo[4,5-b]pyridin-3-yl)-2,3-dihydro-1H-inden-1-yl)-5-methyl-4-oxo-4,5-dihydro-2H-pyrrolo[3,4-c]pyridine-1-carboxamide]	179	10.8	307	1660			
C#CC1(OCC(=O)N[C@H]2CCc3cc(-n4c(-c5cccnc5N)nc5ccc(-n6cccn6)nc54)ccc32)COC1 [Compound 9, N—{(S)-5-[2-(2-amino-3-pyridyl)-5-(1-pyrazolyl)-3H-1,3,4-triazainden-3-yl]-1-indanyl}(3-ethynyl-3-oxetanyloxy)acetamide]	> 1000	> 1000	8890				
COc1cc(-c2ccc3nc(-c4cccnc4N)n(-c4ccc5c(c4)CC(F)[C@@H]5NC4CCN(C(=O)C5CC5)CC4)c3n2)ccn1 (stereo partly drawn) [Compound 543]					526	81	1210
N#Cc1nccc(N2CCC(N[C@@H]3c4ccc(-n5c(-c6cccnc6N)nc6ccc(-n7cccn7)nc65)cc4CC3F)CC2)n1 (stereo partly drawn) [Compound 579]					9.88	5.42	26.6
N#Cc1nccc(C(=O)N2CCC(N[C@H]3CCc4cc(-n5c(-c6cccnc6N)nc6ccc(-n7cccn7)nc65)ccc43)CC2)n1 [Compound 580]					11.4	11.2	24.4
N#Cc1nccc(N2CC(N[C@H]3CCc4cc(-n5c(-c6cccnc6N)nc6ccc(-n7cccn7)nc65)ccc43)C2)n1 [Compound 581]					20.8	6.51	38.4
Cc1cnc(C#N)nc1N1CCC(N[C@H]2CCc3cc(-n4c(-c5cccnc5N)nc5ccc(-n6cccn6)nc54)ccc32)CC1 [Compound 585]					8.23	4.77	10.7
N#Cc1ncnc(N2CCC(N[C@H]3CCc4cc(-n5c(-c6cccnc6N)nc6ccc(-n7cccn7)nc65)ccc43)CC2)n1 [Compound 592]					5.5	4.32	11
N#Cc1nc(N2CCC(N[C@H]3CCc4cc(-n5c(-c6cccnc6N)nc6ccc(-n7cccn7)nc65)ccc43)CC2)cs1 [Compound 593]					22	4.56	23.7
N#Cc1nc2c(c(N3CCC(N[C@H]4CCc5cc(-n6c(-c7cccnc7N)nc7ccc(-n8cccn8)nc76)ccc54)CC3)n1)CCC2 [Compound 603]					16.5	7.65	76.8
Cc1cc(N2CCC(N[C@H]3CCc4cc(-n5c(-c6cccnc6N)nc6ccc(-n7cccn7)nc65)ccc43)CC2)nc(C#N)n1 [Cpd 584, (S)-4-(4-((5-(2-(2-aminopyridin-3-yl)-5-(1H-pyrazol-1-yl)-3H-imidazo[4,5-b]pyridin-3-yl)-2,3-dihydro-1H-inden-1-yl)amino)piperidin-1-yl)-6-methylpyrimidine-2-carbonitrile]					11.8	6.1	62.5
COc1cnc(C#N)nc1N1CCC(N[C@H]2CCc3cc(-n4c(-c5cccnc5N)nc5ccc(-n6cccn6)nc54)ccc32)CC1 [Cpd 586]					17.3	6.98	43
